# Test results: a melting point compilation (Tetko et al.; mined from patent text by program, amines drawn as free bases though some values may be those of a salt)
row,Compound,melting point
1,COc1cc2c(cc1OC)CN(CCc1ccc(NC(=O)c3cccc4c(=O)c5cccc(F)c5[nH]c34)cc1)CC2,212 °C
2,O=S(=O)(Nc1cccc2cc(C3=NCCS3)[nH]c12)c1cccs1,189 to 190 °C
3,CCOC(=O)C(=CNc1cccc(C)n1)C(=O)OCC,102 to 104 °C
4,NS(=O)(=O)c1ccc(-n2nc(C(F)(F)F)cc2-c2ccc(-c3ccco3)cc2)c(F)c1,174 °C
5,COc1ccc(Cn2c(O)nc3c(-c4ccco4)ncnc32)cc1,143 to 144 °C
6,CC(C)(C)c1ccc(C(=O)c2ccc3n2Cc2ccccc2N(C(=O)c2ccc(C4CCCCC4)cc2)C3)cc1,143 to 145 °C
7,Cn1nnnc1-c1cn(C)c2cc(OC(F)F)ccc2c1=O,225 to 228 °C
8,CC(C)(C)OC(=O)NC1C(=O)N(OCc2ccccc2)C12CCC2 (stereo not drawn),156 to 157 °C
9,COC(=O)CCC(C(=O)c1cccc(O)c1)c1ccccc1C (racemic),101 to 103 °C
10,CN1C(=O)CN(c2cccc(Br)c2)NC1=O,165 to 166 °C
11,CCCCc1nc2ccn(Cc3ccccc3C(=O)OCC)c(=O)c2n1Cc1ccc(-c2ccccc2-c2nnn[nH]2)cc1,203 to 204 °C
12,Cc1n[nH]c2c1C(=O)CC(c1cc(Cl)sc1Cl)C2 (stereo not drawn),167 to 168 °C
13,CCCOC(=O)C(C)Oc1ccc(Oc2cnc3cc(F)ccc3n2)cc1F (stereo not drawn),49 to 51 °C
14,CC(C)(C)OC(=O)Nc1ccc(Nc2n[nH]c(N)c2C#N)cc1,166 to 168 °C
15,CCCCNC(=O)NS(=O)(=O)c1cscc1C,126 to 131 °C
16,O=C(Cl)CC(c1ccccc1)c1ccccc1,41 to 43 °C
17,Nc1cccc(C(=O)O)c1S(=O)(=O)CCO,75 to 77 °C
18,COc1ccc(Br)c(COc2cccc3cc(OC)ccc23)c1,83 to 84 °C
19,CNC1(CC2CCCCC2)C(=O)N(S(=O)(=O)c2ccc([N+](=O)[O-])cc2OC)c2ccc(Cl)cc21 (stereo not drawn),207 °C

row,Compound,melting point
1,CCCCNS(=O)(=O)c1ccc(N2CCC(NC[C@H](O)c3ccc(O)c(NS(C)(=O)=O)c3)CC2)cc1,71 to 75 °C
2,O=c1c2c(nc3ccc(-c4nnn[nH]4)cn13)CSC2,285 °C
3,COc1cc(C(O)c2ccccc2[N+](=O)[O-])c(Br)cn1 (stereo not drawn),128 to 131 °C
4,O=C1c2ccccc2C(Nc2ccc(Cl)cc2)N1CCCN1CC=C(c2ccccc2)CC1 (stereo not drawn),188 °C
5,CC(C)(C)OC(=O)Nc1ccc2ccc(S(=O)(=O)N(Cc3ccccc3)Cc3ccccc3)cc2c1,139 to 140 °C
6,CCCC1c2c(ccc(C(C)=O)c2O)OC1COc1ccc(CC(=O)O)cc1 (stereo not drawn),104 to 106 °C
7,COc1ccc(C(=O)Nc2ccc(N3CCCC3)cc2C(C)=O)cc1,174 to 175 °C
8,COc1ccc(Br)c(CC(C#N)C(=O)O)c1OC (stereo not drawn),120 to 122 °C
9,O=C1Nc2ccccc2C1C(=O)c1ccoc1 (stereo not drawn),185 to 186 °C
10,CCc1cc(C)cc(CC)c1C(C(=O)NC)C(=O)NC,98 to 100 °C
11,CCCCC(c1c[nH]cn1)c1cccc(CO)c1O (stereo not drawn),93 °C
12,Cc1cc(-c2nc(-c3ccncc3)nn2C)cc(C)n1,176 to 178 °C
13,CC12CCCc3cc(N(CC4CC4)c4ncc(C(=O)O)cn4)cc(c31)CCC2,123 to 124 °C
14,COC(=O)Cc1cc2c(cc1CC(=O)NCCc1ccc(OC)c(OC)c1)OCO2,122 to 125 °C
15,C#CCOC(=O)C1=C(C)N(C)C(C)=C(C(=O)OCC#C)C1c1cccc(C(F)(F)F)c1,163 °C
16,Clc1cc(Cl)c(C#C[Si](c2ccccc2)(c2ccccc2)c2ccccc2)c(Cl)c1,115 to 120 °C
17,COC(=O)CCCc1cc2nc(Cl)ccc2n1S(=O)(=O)c1ccc2nc(N)sc2c1,85 to 90 °C
18,CCc1noc(-c2ccc(C)cc2)c1-c1ccc(S(N)(=O)=O)cc1,191 °C
19,CC(C)(C)OC(=O)N1CCN(Cc2ccc(Cl)c(Cl)c2)CC1,75 to 76 °C
